Take `Cc1c(OCC(F)(F)F)ccnc1CSc1nc2cc(CO)ccc2[nH]1`: the melting point (in general, the temperature, or range, at which the solid turns liquid) lay in the range of 153 to 155 °C.

`O=C1CCCc2c1c1cc(F)ccc1n2Cc1ccc(F)cc1` displayed a melting point of 182 to 183 °C.

Regarding `COC(=O)c1nn2c(C)csc2c1SSc1c(C(=O)OC)nn2c(C)csc12`, the melting point is 193 to 194 °C.

As for `N#Cc1ccc(O)c(I)c1`, the melting point fell in the range of 144 to 146 °C.

On to `O=c1[nH]c2cc([N+](=O)[O-])ccc2n(Cc2ccc(P(=O)(O)O)cc2)c1=O`, for which the melting point is 253 to 265 °C.

With `O=C(CCCN1CCN2c3ccccc3NC(=O)C2C1)c1ccc(F)cc1` (stereo unspecified), the melting point fell in the range of 145 to 150 °C.

Take `CC(=O)OCC1OC(OC2C(COC(C)=O)OC(Sc3ccc(N)cc3)C(OC(C)=O)C2OC(C)=O)C(OC(C)=O)C(OC(C)=O)C1OC(C)=O` (stereo unspecified): the melting point fell in the range of 145 to 148 °C.

`N#Cc1ccc(Cn2cncc2CN2CCC3(CC2)C(=O)Nc2ccccc23)cc1` yielded a melting point of 245 to 247 °C.

Compound `O=C(Nc1ccc(-n2nc(C(F)(F)F)cc2C(F)(F)F)cc1)Nc1ccc(Cl)cc1[N+](=O)[O-]` had a melting point of 225 to 227 °C.

Compound `O=C(NC(Cc1ccc(OCc2ccccc2)cc1)C(=O)O)c1nc2ccc(-c3ccc(Cl)cc3)cn2c1Cl` (stereo unspecified) had a melting point of 242 to 244 °C.

As for `O=[N+]([O-])c1ccc(Oc2ccc(C3(c4ccc(Oc5ccc([N+](=O)[O-])cc5)cc4)CCC(c4ccccc4)CC3)cc2)cc1`, the melting point fell in the range of 216 to 218 °C.

On to `O=C(O)[C@H]1C[C@@H](CP(=O)(O)O)c2ccccc2N1` (relative stereo), for which the melting point lay in the range of 171 to 173 °C.

In turn, `CC1(C)C(=O)Nc2cc(C=O)ccc2N(CC2CC2)C1=O` displayed a melting point of 124 to 125 °C.

For `COC(=O)c1cc(Cl)c(NC(C)=O)cc1OC1CCOC1=O` (stereo unspecified), the melting point is 118 to 119 °C.

Regarding `CN1CCc2sc(C=C3C(=O)N4C(C(=O)O)=CSC34)cc2C1` (stereo unspecified), the melting point is above 25 °C.

For `CS(=O)(=O)Nc1ccc(F)c(C(=O)C[N+](=O)[O-])c1`, the melting point lay in the range of 174 to 176 °C.

`C=C(c1ccc(N2CCCC2)cc1)c1ccc(N2CCCC2)cc1` registered a melting point of 211 °C.

For the compound `O=C(O)CCc1cc(OCCCc2cn(-c3ccc(C(F)(F)F)cn3)nc2OCc2ccccc2)nn1-c1ccccc1`, the melting point lay within 159 to 161 °C.

Regarding `Cc1cc(O)ccc1-c1noc2cc(O)ccc12`, the melting point was 229 to 231 °C.

Take `CNC(=S)C1(c2ccc(Cl)nc2)CCCCC1=O` (stereo unspecified): the melting point fell in the range of 172 to 173 °C.

The compound `Cn1c(C(F)(F)F)cc(=O)n(-c2ccc([N+](=O)[O-])cc2F)c1=O` gave a melting point of 135 to 136 °C.

`COc1ccc(N2CCN(c3ccc(N4C(=O)N(C(C)C(C)=O)C(C)(C)C4=O)cc3)CC2)cc1` (stereo unspecified) had a melting point of 226 °C.

`COC(=O)c1ccc(-c2nc3c(OC)cccc3s2)cc1` came in with a melting point of 165 to 167 °C.

`CSc1cc(C(C)=O)ccc1OCCCN1CCC(c2noc3cc(F)ccc23)CC1`: the melting point fell in the range of 150 to 152 °C.

As to `CCCCn1c(=O)c(NC(=O)Nc2c(C(C)C)cccc2C(C)C)c(-c2cccc(OCCCCl)c2)c2cccnc21`, the melting point fell in the range of 138 to 140 °C.

`CC(C)(CO)C(=O)C(Oc1ccc(Cl)cc1)n1cncn1` (stereo unspecified): the melting point is 110 to 111 °C.

As for `Cn1cc(Sc2ccccc2)c(=O)c(-c2ccccc2)c1`, the melting point was in the range of 164 to 165 °C.

In turn, `CN(CCCN)CC(O)C(O)C(O)C(O)CO` (stereo unspecified) gave a melting point of 106 °C.

`CS(=O)(=O)N(C(=O)OCc1ccccc1)c1cc(O)ccc1OCc1ccccc1`: the melting point fell in the range of 138 to 140 °C.

Compound `Cc1c(C)c2c(c(C)c1O)CCC(C)(C(=O)Nc1ccccc1)O2` (stereo unspecified) returned a melting point of 107 to 109 °C.

As for `COc1cccc(Cn2c(=O)c3c(Cl)cc(Cl)cc3n(Cc3ccccc3)c2=O)c1`, the melting point was in the range of 106 to 108 °C.

The compound `Cc1nc(NC(=O)c2cnccn2)c(Br)c(C)c1Br` had a melting point of 166 °C.

In turn, `Cc1nnc(-c2ccc3occ(-c4ccncc4Cl)c3c2)o1` gave a melting point of 147 to 148 °C.

Turning to `N#Cc1ncccc1CCc1ccc(F)cc1`, the melting point lay in the range of 48 to 49 °C.

In turn, `CCCCCCOc1nc(N)c2ncn(C3CCCCC3)c2n1` registered a melting point of 57 to 60 °C.

Compound `CN(C)CCCC(=O)N1CCC(c2[nH]nc3c2C(=O)c2c(NC(=O)NN4CCOCC4)cccc2-3)CC1` showed a melting point of 145 to 147 °C.

`Cc1c(C)c([N+](=O)[O-])c(C)c2c1OC(C)(C)C2c1ccc(C(C)C)cc1` (stereo unspecified) registered a melting point of 109 to 110 °C.

The compound `COCC(C#N)=Cc1cc(OC)c2c(c1)OCO2` displayed a melting point of 115 °C.

In turn, `NS(=O)(=O)c1cccc(C(=O)Cl)c1` registered a melting point of 123 °C.

`FC(F)(F)c1cccc(-c2ccc3nncn3n2)c1` registered a melting point of 140 to 143 °C.

`CCCCC[C@@H](COc1ccc(C(=O)O)cc1)c1ccc2c(c1)C(C)(C)CCC2(C)C` gave a melting point of 74 to 76 °C.

`COc1ccc(C(=O)c2c(N)sc3c2CCCC3)c2ccccc12` gave a melting point of 227 to 229 °C.

For the compound `CCOCCOc1ccc(C(O)CNC(C)CCc2ccccc2)cc1C(=O)OC` (stereo unspecified), the melting point was 100 to 101 °C.

`CCOC(=O)c1c(Cc2ccccc2)c2ccccc2[nH]c1=O` gave a melting point of 230 °C.

`COc1ccnc(CCc2nc3cccnc3n2-c2ccc(OCc3ccccc3)c(F)c2)c1` came in with a melting point of 168 to 170 °C.

`CC(C)=CCOc1ccc(C(=O)C=Cc2ccc(C(F)(F)F)cc2)c(O)c1`: the melting point lay in the range of 122 to 123 °C.

`CCN(CC)C(=O)c1ccc(OCCCl)cc1` registered a melting point of 80 to 81 °C.

As to `CCCSC(C)(C(=O)O)c1ccc2oc(Cc3nc(-c4ccccc4)oc3C)cc2c1` (stereo unspecified), the melting point was 169 to 170 °C.

In turn, `Cc1csc(Cc2ccc(NC(=O)/C=C/c3cnn(C)c3-c3ccc(F)cc3)cc2)n1` came in with a melting point of 217 to 218 °C.

As for `COC(=O)c1csc(-c2ccc([N+](=O)[O-])cc2)n1`, the melting point lay within 224 to 227 °C.

`COc1ccccc1-c1ccc(C(=O)N2Cc3ccc(C(=O)O)n3Cc3ccccc32)cc1C` displayed a melting point of 133 to 135 °C.

In the case of `CCCCCC(CC(=O)Nc1cc(C(=O)O)ccc1C(C)(C)C)c1ccc(OC)cc1OC` (stereo unspecified), the melting point was in the range of 153 to 154 °C.

`CCOCc1nc2c(N)nc3cccnc3c2n1CC(C)(C)NC(=O)C(C)C` yielded a melting point of 154 to 156 °C.

The compound `COC(=O)c1c(C(F)(F)F)nc(C(F)(F)F)c(C(=O)OC)c1[Si](C)(C)C` showed a melting point of 29 to 31 °C.

In turn, `CCOc1cccc2cc(S(=O)(=O)Nc3ccc(F)c(N)c3)c(=O)oc12` yielded a melting point of 160 to 162 °C.

With `N#CNC(=NC1CCN(Cc2ccccc2)CC1)N1CCOCC1`, the melting point is 163 to 165 °C.

Compound `NC(=O)N1c2ccccc2C=C([N+](=O)[O-])c2ccccc21` registered a melting point of 208 to 212 °C.

In turn, `CC(C)Cc1nc2c(N)nc3ccccc3c2s1` returned a melting point of 123 to 125 °C.

In turn, `CC1(C)Oc2cc(Br)sc2C(N2CCCC2=O)C1O` (stereo unspecified) displayed a melting point of 162 to 165 °C.

As for `Cc1cc(N)c([N+](=O)[O-])c(C)c1N`, the melting point was 124 °C.

In the case of `O=C(N1Cc2ccccc2Nc2ccccc21)C(F)(F)F`, the melting point fell in the range of 140 to 141 °C.

Take `CSc1ncc2cc(-c3c(Cl)cccc3Cl)c(N)nc2n1`: the melting point lay in the range of 250 to 253 °C.

Compound `O=C1c2ccccc2C(=O)N1CC(=O)N1c2ccccc2N(Cc2ccc(OCc3ccccc3)cc2)C(=O)[C@H]2CCC[C@H]21` (relative stereo) returned a melting point of 179 to 181 °C.

The compound `CC(=O)c1sc(Nc2cc[nH]n2)nc1C` showed a melting point of 224 to 227 °C.

In the case of `CONC(=N)c1nn(-c2c(Cl)cc(C(F)(F)F)cc2Cl)c(N)c1S(C)=O` (stereo unspecified), the melting point fell in the range of 169 to 170 °C.

In the case of `C#CCOc1cc(-c2nn(C)c(S(C)(=O)=O)c2C)c(F)cc1Cl`, the melting point was 123 to 124 °C.

`CCc1c(C)c2c(c(OS(=O)(=O)c3ccc(C)cc3)c1C/C=C(\C)CCC(=O)OC)C(=O)OC2` displayed a melting point of 101 to 103 °C.

Turning to `Cn1ncc(CC(=O)O)c1OCCCc1cn(-c2ccc(C(F)(F)F)cn2)nc1C1CCCCC1`, the melting point lay within 137 to 138 °C.

Compound `O=C(Nc1ccc(Cl)cc1)N[C@H]1C[C@H](C(=O)O)Nc2cc(Cl)cc(Cl)c21` (relative stereo) registered a melting point of 199 to 200 °C.

Compound `O=C(C=Cc1cccs1)C=Cc1cccs1` had a melting point of 115 to 117 °C.

Compound `COc1cc(CN2Cc3cc(OC)c(O)cc3CC2C)cc(OC)c1` (stereo unspecified) came in with a melting point of 155 to 158 °C.

`Cc1cc(-n2cncn2)c2cccc(C)c2n1` returned a melting point of 99 to 100 °C.

For `COc1cc(Nc2ncc(-c3ccccc3)o2)ccc1-c1cnco1`, the melting point was in the range of 212 to 215 °C.

Compound `CNC(=O)c1c(C)c([N+](=O)[O-])cc2nc(OC)c(OC)nc12` came in with a melting point of 205 to 206 °C.

In the case of `CCCCC(C)C(O)CCc1cc(O)c(O)cc1Br` (stereo unspecified), the melting point lay within 68 to 71 °C.

The compound `COc1cc(Nc2c(C#N)cnc3cc(-c4ccc(Cn5ccnn5)cc4)ccc23)c(Cl)cc1Cl` yielded a melting point of 239 to 240 °C.

Take `O=c1[nH]c(=Cc2ccc3ccccc3n2)c(=O)[nH]c1=Cc1ccc(F)cc1`: the melting point lay within 319 to 320 °C.

With `O=C(NCCc1c[nH]c2ccccc12)Oc1ccccc1`, the melting point lay within 44 to 46 °C.

Turning to `Cc1ccc(C)c(OCCCC(C)(C)C(=O)Nc2cccc(C3=NC(C)(C)CO3)c2C)c1`, the melting point lay within 51 to 52 °C.

In turn, `O=C(O)C1CC=CCC1C(=O)N1CCc2cc(S(=O)(=O)N3CCN(c4cccc(Cl)c4)CC3)ccc21` (stereo unspecified) showed a melting point of 146 to 148 °C.

`COc1cccc(NC(=O)NCc2cccc3c2C(=O)N(C2CCC(=O)NC2=O)C3=O)c1` (stereo unspecified) came in with a melting point of 160 to 162 °C.

Turning to `COc1cc2cc(-c3c(F)cccc3F)sc2c(Cl)c1Cl`, the melting point fell in the range of 173 to 174 °C.

In the case of `CCOc1ccc(-c2nc(-c3cccc(C(N)=NO)n3)cs2)cc1OCC`, the melting point was in the range of 218 to 220 °C.

Compound `CC(C)Oc1cc(CCCOc2ncccc2CC(=O)O)n(Cc2ccc(F)cc2Cl)n1` had a melting point of 90 to 91 °C.

In the case of `CCOP(=O)(CCCOc1ccc2c(c1)c(CC(N)=O)c(C)n2Cc1ccccc1)OCC`, the melting point is 106 to 111 °C.

Take `NC(=O)[C@@H](N)CN(c1ccccc1)c1ncccn1`: the melting point came to 139 °C.

The record behind these values is a melting point compilation (Tetko et al.; mined from patent text by program, amines drawn as free bases though some values may be those of a salt).
